Results from patent US20160220720A1, “COMPOSITIONS COMPRISING POLYAMINE POLYMER COMPATIBLE PERFUME MATERIALS” (priority 2013, published 2016).
“And” between values parts separate entries of the source, which are not always exact repeats. Identical values can stand only once.

Test: GC-MS head space ratio of perfume raw materials with versus without polyamine polymer (R)
Format: physicochemical
Settings: aqueous fabric refresher formulation pH 6.8, 0.05% Lupamin 1595; head space after 1 hr room temperature and 20 minutes at 40° C.; Control without polyamine polymer = 1.000
Protocol: R=head space of aqueous composition containing polyamine/head space of aqueous composition nil polyamine polymer
Polyamine polymer perfume interactions were studied in aqueous fabric refresher formulations. Aqueous formulations containing a perfume mixture and a polyamine polymer was prepared according to Table 2 and studied against a control fabric refresher formulation without a polyamine polymer. Studies were conducted using 500 ppm (0.05%) polyamine polymer and perfume mixtures at 2 levels (500 ppm (0.05%) and 10,000 ppm […]).
GC-MS was used to study polymer perfume aldehyde interactions using the formulations prepared in Example 1. For the GC-MS analysis, 2 ml of each sample was transferred into 20 ml headspace vial, equilibrated at room temperature for 1 hr, and incubated at 40° C. for 20 minutes. Then, 1 ml of head space was injected into GC-MS using 1 to 10 split, and perfume raw material intensities were measured. Perfume raw material peak area ratios were then calculated using the control sample without a polyamine polymer.
PRMs that react with polyamine polymer have a headspace concentration less than 1.00 with respect to the normalized Control.

| Compound | GC-MS head space peak area ratio normalized to Control |
| --- | --- |
| CC(=O)c1ccc(C(C)=O)cc1 [1,4-diacety lbenzene] | 0.913 |
| CC(=O)c1cccs1 [2-acetyl thiophene] | 0.794 |
| CCCC(C)C=O (stereo not drawn) [2-methyl petanal] | 0.864 |
| CC(C)=CCCC(C)CCCC(C)C=O (stereo not drawn) [Adoxal] | 0.751 |
| O=Cc1ccccc1 [Benzaldehyde] | 1.030 |
| CC(=O)/C=C/C1=C(C)CCCC1(C)C [Beta Ionone] | 1.222 |
| C=C(C)C1CC=C(C)C(=O)C1 (stereo not drawn) [Carvone] | 1.103 |
| CC(C)=CCCC(C)CC=O (stereo not drawn) [Citronellal] | 2.597 |
| CC(C)c1ccc(C=O)cc1 [Cuminaldehyde] | 0.977 |
| C/C=C/C(=O)C1C(C)C=CCC1(C)C (stereo not drawn) [Delta-damascone] | 1.228 |
| O=CCCC=C1CC2CC1C1CCCC21 (stereo not drawn) [Dupical] | 0.932 |
| CCCCCC=O [Hexanal] | 0.222 |
| CCCCCCC(C=O)=Cc1ccccc1 [Hexylcinnamicaldehyde] | 1.480 |
| CCCCCCCCCCCC=O [Lauric Aldehyde] | 0.169 |
| CCCCCCCCCC(C)C=O (stereo not drawn) [Methyl Nonyl Acetaldehyde] | 0.772 |
| CCCCCCCCC(C)C=O (stereo not drawn) [Methyl Octyl acetaldehyde] | 0.836 |
| CC(C)=CCC/C(C)=C\C=O [Neral] | 0.261 |
| CCCCCCCCC=O [Nonaldehyde] | 0.209 |
| CC(C)CCCC(C)CC=O (stereo not drawn) [Tetrahydrogeranial] | 0.415 |
| CCC/C=C/C=O [Trans-2-hexenal] | 0.226 |
| CCCCCCCCCCC=CC=O [Tridecenal] | 0.470 |
| COc1ccc(C=O)cc1 [p-Anisaldehyde] | 1.521 |

Same assay, conditions: aqueous fabric refresher formulation pH 6.8, 0.05% Lupamin 1595; head space after 1 hr room temperature and 20 minutes at 40° C.; Control without polyamine polymer = 1.000; listed as Kaovone

| Compound | GC-MS head space peak area ratio normalized to Control |
| --- | --- |
| CC(=O)/C(C)=C(/C)C(C)C(C)(C)C (stereo not drawn) [Koavone] | 1.185 and 1.159 and 1.171 |

Same assay, conditions: head space with polyamine polymer / head space nil polyamine polymer

| Compound | Obs. Lupamin Ratio |
| --- | --- |
| CC(C)=CCCC(C)CCCC(C)C=O (stereo not drawn) [Adoxal] | 0.79 |
| CC(C)=CCC/C(C)=C/C=O [Citral] | 0.23 |
| O=Cc1ccc2c(c1)OCO2 [Heliotropin] | 1.65 |
| CC1(C)CCc2ccc(CCC=O)cc21 [Hivernal] | 0.17 |
| CC(=O)/C(C)=C(/C)C(C)C(C)(C)C (stereo not drawn) [Koavone] | 1.17 |
| O=CC1CCC2C3CCC(C3)C12 (stereo not drawn) [Melozone] | 0.28 |
| CCCCCCCCC=O [Nonaldehyde] | 0.21 |
| CC(C)CCCC(C)CC=O (stereo not drawn) [Tetrahydrogeranial] | 0.42 |
| COc1ccc(C=O)cc1 [p-Anisaldehyde] | 1.52 |

Test: not given
Settings: ambient temperature; cited from earlier work

| Compound | water solubility (benchmark) [g/100 ml] |
| --- | --- |
| hydroxypropyl modified beta cyclodextrin | ≥ 60 |
